Source: US20020165188A1, “Methods for inhibition of tumorigenic properties of melanoma cells” (priority 1999, published 2002)
“Also recorded” adds a separate entry of the source.

What was measured:
E-cadherin = E-cadherin expression in melanocytic cells under HGF stimulation (immunoblot); assay type: cell-based, human
Procedure: (§1) Optimal viral concentrations for infection were determined as the amounts of virus required to yield the desired levels of gene expression without apparent alteration in cellular phenotype or toxicity. Subconfluent melanocytes and melanoma cells were infected with adenoviruses for 2-4 hours at 37° C. in protein-free W489 medium. Viral suspension was then replaced with culture medium. Because dominant negative Desmoglein-3 vector AxCALNLDsg3ΔEC and E-cadherin vector AxCALNLEcadΔEC were made using the Cre-loxP system (Hanakawa et al., 2000), AxCANCre was co-infected with AxCALNLDsg3ΔEC or AxCALNLEcacLΔEC at a ratio of 1:1, respectively. Cells were allowed to recover for at least 24 hours before assay.
(§2) For immunoblotting, cells were washed with PBS and harvested in RIPA buffer. Total protein concentrations were measured using the bicinchoninic acid (BCA) assay (Pierce Chemical Co. Rockford, Ill.). Samples were loaded at 15 μg/lane and separated on 8% SDS polyacrylamide gels and transferred to polyvinylidene difluoride (PVDF) membranes and probed with specific primary antibodies. To detect the signal, peroxidase-conjugated secondary antibody was added, followed by exposure using enhanced chemiluminescence (ECL) (Amersham, Arlington Heights, Ill.). Some of the immunoblots were quantified using NIH Image (version 1.61).

Desmoglein 1 = Desmoglein 1 expression in melanocytic cells under HGF stimulation (immunoblot); assay type: cell-based, human
Procedure: as §1, §2

c-Met = c-Met phosphorylation by immunoprecipitation and anti-phosphotyrosine blot; assay type: cell-based, human
Procedure: To investigate the status of c-Met phosphorylation, subconfluent melanoma cells were infected with LacZ or Ad.CMV.rhHGF (20 pfu/cell) and cultured for 48 hours. In neutralizing antibody-treated group, HGF neutralizing antibody (final concentration 10 ug/ml) was added to serum-free medium 24 hours before lysis. Cells were washed with cold PBS containing 1 mM Na3VO4, and rapidly scraped into 200 μl PBS containing 1% Triton X-100, 1% NP4O, 1 mM Na3VO4, 1 mM phenylmethyl sulfonyl fluoride (PMSF), and protease inhibitors (1 μg/ml leupeptin, aprotinin and pepstatin). After incubation on ice for 15 minutes, the extracts were separated by centrifugation at 13,000× g for 10 minutes. The supernatants were used for immunoprecipitation using an anti-c-Met antibody (5 μg) for 1 hour at 4° C. with shaking. Protein A-G sepharose CL-4B beads (Pharmacia Biotech, Uppsala, Sweden) were then added and incubated for 12 hours. Samples were washed four times with lysis buffer, boiled in Laemmli buffer containing (3-mercaptoethanol, and subjected to electrophoresis on an 8% SDS-polyacrylamide gel. Separated proteins were transferred onto PVDF membrane and detected by anti-phosphotyrosine primary antibody (PY2O) and peroxidase-conjugated secondary antibody. Signals were detected using ECL.

[1] = test system: melanocytes or melanoma cells; test: Growth of melanocytes and melanoma cells after HGF treatment; assay type: cell-based, human; conditions: HGF treatment alone
IGF-R1 [2] = target: T1, IGF-R1 (human, UniProt P08069 31-1367, limits assumed); test: co-immunoprecipitation with anti-Plakoglobin antibody, blot probed with anti-IGF-R1 antibody
T1 construct: Specificity control of the co-immunoprecipitation; also called IF-R1
T1 sequence (P08069 31-1367 limits assumed): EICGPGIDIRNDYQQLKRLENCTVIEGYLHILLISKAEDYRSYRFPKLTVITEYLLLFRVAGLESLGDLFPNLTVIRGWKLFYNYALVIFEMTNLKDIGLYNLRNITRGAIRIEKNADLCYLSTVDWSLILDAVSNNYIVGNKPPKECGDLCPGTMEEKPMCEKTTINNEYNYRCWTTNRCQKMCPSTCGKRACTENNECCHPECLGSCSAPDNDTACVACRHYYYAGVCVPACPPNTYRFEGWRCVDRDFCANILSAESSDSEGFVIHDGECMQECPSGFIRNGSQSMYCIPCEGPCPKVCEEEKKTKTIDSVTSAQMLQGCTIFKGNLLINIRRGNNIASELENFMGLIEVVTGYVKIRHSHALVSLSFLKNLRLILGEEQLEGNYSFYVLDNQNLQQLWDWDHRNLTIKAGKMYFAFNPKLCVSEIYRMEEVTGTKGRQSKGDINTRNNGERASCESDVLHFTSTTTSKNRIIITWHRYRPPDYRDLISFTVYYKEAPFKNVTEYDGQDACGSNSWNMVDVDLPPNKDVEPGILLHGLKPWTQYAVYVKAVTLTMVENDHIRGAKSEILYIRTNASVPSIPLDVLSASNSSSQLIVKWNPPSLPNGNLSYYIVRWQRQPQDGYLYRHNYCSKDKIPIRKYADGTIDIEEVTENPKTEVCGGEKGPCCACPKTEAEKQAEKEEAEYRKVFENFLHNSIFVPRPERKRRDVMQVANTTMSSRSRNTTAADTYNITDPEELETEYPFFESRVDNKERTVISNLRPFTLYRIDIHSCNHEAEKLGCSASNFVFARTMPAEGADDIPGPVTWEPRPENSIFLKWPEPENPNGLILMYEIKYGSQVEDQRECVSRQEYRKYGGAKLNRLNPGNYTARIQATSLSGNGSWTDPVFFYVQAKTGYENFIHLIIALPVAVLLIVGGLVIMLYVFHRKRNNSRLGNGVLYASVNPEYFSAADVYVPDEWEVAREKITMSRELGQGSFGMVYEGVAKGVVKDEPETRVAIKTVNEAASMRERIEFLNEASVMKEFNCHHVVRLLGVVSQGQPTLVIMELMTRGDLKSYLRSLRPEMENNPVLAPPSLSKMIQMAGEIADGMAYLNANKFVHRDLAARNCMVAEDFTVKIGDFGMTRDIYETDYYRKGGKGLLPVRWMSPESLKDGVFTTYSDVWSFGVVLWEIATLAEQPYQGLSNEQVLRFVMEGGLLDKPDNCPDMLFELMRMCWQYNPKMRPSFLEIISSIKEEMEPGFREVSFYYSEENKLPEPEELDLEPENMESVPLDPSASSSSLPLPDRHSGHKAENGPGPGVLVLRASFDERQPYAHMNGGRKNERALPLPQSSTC
Source text: (§3) Desmoglein 1, E-cadherin, c-Met and Plakoglobin can be co-immunoprecipitated from melanocytic cells. […] To test the possibility that physical interactions underlie the crosstalk between HGF/c-Met signaling and adhesion receptor regulation, the complex formation was investigated by immunoprecipitation analyses. Desmoglein 1, Plakoglobin, c-Met and E-cadherin were detected in the complexes pulled down by either anti-Desmoglein 1 antibody or anti-Plakoglobin antibody in keratinocytes and melanocytes. WM278 expresses no E-cadherin, but the other components were also found to form complexes. The specificity of the interaction was confirmed by probing the same blots with anti-IF-R1 antibody. IF-R1 was not detected in the immunoprecipitants but IF-R1 was detectable in whole cell extract.
(§4) To investigate c-Met Desmoglein lE-cadherin complexes, cells cultured in their optimal media were lysed in 10 mM Tris-HCl (pH7.4), 1% NP-40, 1% Triton X-100, 2mM CaCl₂, 150 mM NaCl, 1 mM PMSF and protease inhibitors (1 μg/ml leupeptin, aprotinin and pepstatin). The extracts were immunoprecipitated using either anti-Desmoglein 1 or anti-Plakoglobin antibody in the same condition described above. Immunoprecipitants were separated on gels, transferred onto PVDF membrane and probed with anti-Desmoglein 1, -Plakoglobin, -c-Met and -E-cadherin antibodies.

IGF-R1 [3] = target: T1, IGF-R1; test: co-immunoprecipitation with anti-Desmoglein 1 antibody, blot probed with anti-IGF-R1 antibody
Source text: as §3, §4

[4] = Ad.CMV.rhHGF transduced melanocytes, antibody 10 μg/ml, wortmannin 30 μM, PD98059 10 μM and 50 μM
[5] = autocrine activation by HGF-expressing adenovirus, melanocytes, WM164, WM35
[6] = continuous/prolonged HGF stimulation (three days; Ad.CMV.rhHGF 20 pfu/cell), melanocytes, WM164 and WM35
[7] = melanocytes, one pulse of recombinant protein 50 ng/ml, five and twelve hour intervals

**Q.** How did the “blocking of HGF-induced downregulation of E-cadherin” value (E-cadherin; [4]) turn out when COc1cccc(-c2cc(=O)c3ccccc3o2)c1N [PD98059, reference compound] was run?
**A.** Its value is “less effective”.

**Q.** And the “blocking of downregulation of E-cadherin (summary statement)” value (E-cadherin; [5])?
**A.** Its value is “partially blocked”.

**Q.** And the “blocking of HGF-induced downregulation of Desmoglein 1” value (Desmoglein 1; [4])?
**A.** Its value is “less effective”.

**Q.** And the “blocking of downregulation of Desmoglein 1 (summary statement)” value (Desmoglein 1; [5])?
**A.** The value was “partially blocked”.

**Q.** Which results are given for “HGF: multi-functional cytokine acting through tyrosine kinase receptor c-met; recombinant human HGF from R&D Systems”?
**A.** levels of c-Met (c-Met; after HGF treatment): did not change; tyrosine-phosphorylated c-Met (c-Met; melanocytes and melanoma cells treated with additional HGF): dramatic increase; expression levels of E-cadherin (E-cadherin; [6]): greatly reduced; E-cadherin expression after pulse HGF (E-cadherin; [7]): did not alter; also recorded: did not cause downregulation; expression levels of Desmoglein 1 (Desmoglein 1; [6]): greatly reduced; Desmoglein expression after pulse HGF (Desmoglein 1; [7]): did not alter; also recorded: did not cause downregulation; growth stimulation [1]: No significant growth stimulation

B1: Plakoglobin (other, human, UniProt P14923 1-745, looked up)
chain: MEVMNLMEQPIKVTEWQQTYTYDSGIHSGANTCVPSVSSKGIMEEDEACGRQYTLKKTTTYTQGVPPSQGDLEYQMSTTARAKRVREAMCPGVSGEDSSLLLATQVEGQATNLQRLAEPSQLLKSAIVHLINYQDDAELATRALPELTKLLNDEDPVVVTKAAMIVNQLSKKEASRRALMGSPQLVAAVVRTMQNTSDLDTARCTTSILHNLSHHREGLLAIFKSGGIPALVRMLSSPVESVLFYAITTLHNLLLYQEGAKMAVRLADGLQKMVPLLNKNNPKFLAITTDCLQLLAYGNQESKLIILANGGPQALVQIMRNYSYEKLLWTTSRVLKVLSVCPSNKPAIVEAGGMQALGKHLTSNSPRLVQNCLWTLRNLSDVATKQEGLESVLKILVNQLSVDDVNVLTCATGTLSNLTCNNSKNKTLVTQNSGVEALIHAILRAGDKDDITEPAVCALRHLTSRHPEAEMAQNSVRLNYGIPAIVKLLNQPNQWPLVKATIGLIRNLALCPANHAPLQEAAVIPRLVQLLVKAHQDAQRHVAAGTQQPYTDGVRMEEIVEGCTGALHILARDPMNRMEIFRLNTIPLFVQLLYSSVENIQRVAAGVLCELAQDKEAADAIDAEGASAPLMELLHSRNEGTATYAAAVLFRISEDKNPDYRKRVSVELTNSLFKHDPAAWEAAQSMIPINEPYGDDMDATYRPMYSSDVPLDPLEMHMDMDGDYPIDTYSDGLRPPYPTADHMLA
notes: Endogenous protein immunoprecipitated from detergent lysates of cultured human cells; also called gamma-catenin; y-catenin
**Q.** Does B1 bind (IGF-R1 [2])?
**A.** Result: no binding

B2: Desmoglein 1 (other, human, UniProt Q02413 50-1049, looked up)
chain: EWIKFAAACREGEDNSKRNPIAKIHSDCAANQQVTYRISGVGIDQPPYGIFVINQKTGEINITSIVDREVTPFFIIYCRALNSMGQDLERPLELRVRVLDINDNPPVFSMATFAGQIEENSNANTLVMILNATDADEPNNLNSKIAFKIIRQEPSDSPMFIINRNTGEIRTMNNFLDREQYGQYALAVRGSDRDGGADGMSAECECNIKILDVNDNIPYMEQSSYTIEIQENTLNSNLLEIRVIDLDEEFSANWMAVIFFISGNEGNWFEIEMNERTNVGILKVVKPLDYEAMQSLQLSIGVRNKAEFHHSIMSQYKLKASAISVTVLNVIEGPVFRPGSKTYVVTGNMGSNDKVGDFVATDLDTGRPSTTVRYVMGNNPADLLAVDSRTGKLTLKNKVTKEQYNMLGGKYQGTILSIDDNLQRTCTGTININIQSFGNDDRTNTEPNTKITTNTGRQESTSSTNYDTSTTSTDSSQVYSSEPGNGAKDLLSDNVHFGPAGIGLLIMGFLVLGLVPFLMICCDCGGAPRSAAGFEPVPECSDGAIHSWAVEGPQPEPRDITTVIPQIPPDNANIIECIDNSGVYTNEYGGREMQDLGGGERMTGFELTEGVKTSGMPEICQEYSGTLRRNSMRECREGGLNMNFMESYFCQKAYAYADEDEGRPSNDCLLIYDIEGVGSPAGSVGCCSFIGEDLDDSFLDTLGPKFKKLADISLGKESYPDLDPSWPPQSTEPVCLPQETEPVVSGHPPISPHFGTTTVISESTYPSGPGVLHPKPILDPLGYGNVTVTESYTTSDTLKPSVHVHDNRPASNVVVTERVVGPISGADLHGMLEMPDLRDGSNVIVTERVIAPSSSLPTSLTIHHPRESSNVVVTERVIQPTSGMIGSLSMHPELANAHNVIVTERVVSGAGVTGISGTTGISGGIGSSGLVGTSMGAGSGALSGAGISGGGIGLSSLGGTASIGHMRSSSDHHFNQTIGSASPSTARSRITKYSTVQYSK
notes: Endogenous protein immunoprecipitated from detergent lysates of cultured human cells; also called Dsg1
**Q.** Does B2 bind (IGF-R1 [3])?
**A.** Result: no binding
